Counter-ions that a name gives are not always drawn. Like-named read-outs stand apart in the source and are kept apart here.
Key:
[1] = tested on: isolated guinea pig trachea; assay: Isolated guinea pig trachea relaxation test; details: Cavia porcellus, read-out: Contraction-inhibiting rate (%)
Procedure: The tracheas were isolated from guinea pigs (Hartley, male, age 7 to 9 weeks, supplier: Nippon SLC) followed by cutting as rings containing cartilage. The trachea specimens were suspended in Krebs solution containing 3 μM indomethacin while applying a load of 1.0 g, and changes in tension were measured through an FD pickup (TB-611T, Nippon Kohden). […] After causing the trachea specimen to contract by electrical field stimulation (SEN-3401, Nippon Kohden) and the contractive reaction being stable, a test compound dissolved in dimethylsulfoxide was added to cause the trachea specimen to relax. The inhibiting rate to the contractive reaction before adding the compound was calculated.

[2] = target: T1, human EP2 receptor (Homo sapiens, UniProt P43116); assay: Measurement of EP2 receptor binding action; details: membrane fraction of HEK293 cells expressing human EP2 receptor; [3H]prostaglandin 10 nM; Ki calculated from IC50
T1 construct: host or cells: HEK293 cells
Procedure: Measurement of EP2 receptor binding action was carried out in compliance with the method of Abramovitz et al. (Biochimica et Biophysica Acta, 1483, 285 (2000)). A test compound dissolved in dimethylsulfoxide and [^3H]prostaglandin […] (NET-428, PerkinElmer) (final concentration: 10 nM) were added to a buffer solution (10 mM MES-KOH (pH 6.0), 10 mM MgCl2, 1 mM EDTA) in which was suspended 10 μg of a membrane fraction of HEK293 cells expressing human EP2 receptor (ES-562-M, available from Euroscreen) followed by incubating at 30° C. for 60 minutes. The membrane fraction was recovered on glass fiber filter paper (GF/B, Whatmann) using a cell harvester (M30R, Brandel), and after washing with buffer solution (10 mM MES-KOH (pH 6.0), 10 mM MgCl2), radioactivity was measured with a liquid scintillation analyzer (2000CA, Packard).
Ki=IC50/(1+([^3H]prostaglandin E2 concentration/Kd))
The dissociation constant (Kd value) was calculated by Scatchard analysis.

[3] = target: T1, human EP2 receptor; assay: Measurement of EP2 agonist activity (cAMP in HEK293 cells expressing human EP2 receptor); assay type: cell-based; details: cAMP increase in HEK293 cells expressing human EP2 receptor, 30 minutes
Procedure: Measurement of EP2 agonist activity was carried out in compliance with the method of Wilson et al. (European Journal of Pharmacology, 501, 49 (2004)). HEK293 cells expressing human EP2 receptor (ES-562-C, available from Euroscreen) were cultured in MEM medium containing 10% FBS and seeded at 2×10^4 cells per well of a 96-well plate. On the following day, the medium was replaced with serumfree MEM medium containing 3-isobutyl-1-methylxanthine (final concentration: 500 μM) and after culturing for 30 minutes, a test compound dissolved in dimethylsulfoxide was added followed by allowing to stand undisturbed in a carbon dioxide incubator. After 30 minutes, the amount of cAMP in the cells was measured with a cAMP Biotrak EIA System kit (available from GE Healthcare Biosciences). The concentration of test compound required to increase the amount of cAMP to 50% of the maximum increase (EC50 value) was calculated by non-linear regression of the test compound concentration and amount of cAMP using EXSAS.

T1 sequence (P43116 whole entry): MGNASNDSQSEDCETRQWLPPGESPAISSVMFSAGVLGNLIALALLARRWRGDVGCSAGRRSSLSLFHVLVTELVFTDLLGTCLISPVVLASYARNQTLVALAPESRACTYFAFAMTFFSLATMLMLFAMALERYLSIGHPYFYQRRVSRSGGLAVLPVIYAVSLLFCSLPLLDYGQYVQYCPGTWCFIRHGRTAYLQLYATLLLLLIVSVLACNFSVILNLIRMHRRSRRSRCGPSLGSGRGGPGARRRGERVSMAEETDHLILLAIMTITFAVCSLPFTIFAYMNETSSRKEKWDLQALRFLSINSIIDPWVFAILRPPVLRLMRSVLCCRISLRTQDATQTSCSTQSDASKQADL

CNc1ccc(CN(Cc2cccc(NCC(=O)O)n2)S(=O)(=O)c2cccnc2)cc1 [Example 1, {6-[(4-Methylaminobenzyl) (pyridin-3-ylsulfonyl)aminomethyl]pyridin-2-ylamino}-acetic acid]
inhibition at 10 µM [1]: 95%

CCCS(=O)(=O)N(C)c1ccc(CN(Cc2cccc(NCC(=O)O)n2)S(=O)(=O)c2cccnc2)cc1 [Example 2, [6-({4-[Methyl(propylsulfonyl)amino]benzyl}(pyridin-3-ylsulfonyl)aminomethyl)pyridin-2-ylamino]acetic acid]
inhibition at 10 µM [1]: 86%

CC[N+](C)(CC)c1ccc(CN(Cc2cccc(NCC(=O)O)n2)S(=O)(=O)c2cccnc2)cc1 [Example 4, [6-({4-[Diethyl(methyl)ammonio]benzyl}(pyridin-3-ylsulfonyl)aminomethyl)pyridin-2-ylamino]acetic acid hydrochloride]
inhibition at 10 µM ([1]; test compound concentration 10 μM, contraction by electrical field stimulation): 81%

CCCC(=O)N(C)c1ccc(CN(Cc2cccc(NCC(=O)O)n2)S(=O)(=O)c2cccnc2)cc1 [Example 5, [6-({4-[Butyryl(methyl)amino]benzyl}(pyridin-3-ylsulfonyl)aminomethyl)pyridin-2-ylamino]acetic acid]
inhibition at 10 µM [1]: 92%

CN(Cc1ccccc1)c1ccc(CN(Cc2cccc(NCC(=O)O)n2)S(=O)(=O)c2cccnc2)cc1 [Example 6, [6-({4-[Benzyl(methyl)amino]benzyl}(pyridin-3-ylsulfonyl)aminomethyl)pyridin-2-ylamino]acetic acid]
inhibition at 10 µM [1]: 94%

CCCCN(C)c1ccc(CN(Cc2cccc(NCC(=O)O)n2)S(=O)(=O)c2ccccn2)cc1 [Example 7, [6-({4-[Butyl(methyl)amino]benzyl}(pyridin-2-ylsulfonyl)aminomethyl)pyridin-2-ylamino]acetic acid]
Ki [2]: 10 nM
EC50 [3]: 1.2 nM
inhibition at 0.03 µM [1]: 84%

— US20120184747A1, “ANILINE COMPOUND” (UBE INDUSTRIES, LTD., priority 2009, published 2012)
